Measurements taken from BindingDB's records for doi:10.1124/jpet.102.047092 (Case Western Reserve University, 2003).

Assays:
[1] = target: 5-hydroxytryptamine receptor 2A (Rattus norvegicus, UniProt P14842)
Mu-type opioid receptor = Mu-type opioid receptor (Homo sapiens, UniProt P35372)
[2] = target: Sodium-dependent noradrenaline transporter (Homo sapiens, UniProt P23975)
D(2) dopamine receptor = D(2) dopamine receptor (Homo sapiens, UniProt P14416)
D(1A) dopamine receptor = D(1A) dopamine receptor (Homo sapiens, UniProt P21728)
Sequence of D(1A) dopamine receptor (P21728 whole entry): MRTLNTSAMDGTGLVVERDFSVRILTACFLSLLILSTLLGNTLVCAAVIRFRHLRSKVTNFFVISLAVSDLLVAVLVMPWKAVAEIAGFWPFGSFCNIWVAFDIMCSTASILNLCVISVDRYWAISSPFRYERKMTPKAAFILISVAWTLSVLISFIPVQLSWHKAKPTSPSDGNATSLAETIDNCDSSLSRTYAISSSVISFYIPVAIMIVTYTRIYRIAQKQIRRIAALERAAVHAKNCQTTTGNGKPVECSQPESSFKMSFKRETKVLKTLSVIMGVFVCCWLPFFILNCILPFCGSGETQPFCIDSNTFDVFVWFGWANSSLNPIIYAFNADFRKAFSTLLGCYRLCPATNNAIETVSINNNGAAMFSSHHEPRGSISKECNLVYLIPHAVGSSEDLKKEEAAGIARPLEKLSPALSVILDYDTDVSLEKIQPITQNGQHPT

[3] = target: T1, Alpha-2C adrenergic receptor (Homo sapiens, UniProt P18825)
T1 sequence (P18825 whole entry): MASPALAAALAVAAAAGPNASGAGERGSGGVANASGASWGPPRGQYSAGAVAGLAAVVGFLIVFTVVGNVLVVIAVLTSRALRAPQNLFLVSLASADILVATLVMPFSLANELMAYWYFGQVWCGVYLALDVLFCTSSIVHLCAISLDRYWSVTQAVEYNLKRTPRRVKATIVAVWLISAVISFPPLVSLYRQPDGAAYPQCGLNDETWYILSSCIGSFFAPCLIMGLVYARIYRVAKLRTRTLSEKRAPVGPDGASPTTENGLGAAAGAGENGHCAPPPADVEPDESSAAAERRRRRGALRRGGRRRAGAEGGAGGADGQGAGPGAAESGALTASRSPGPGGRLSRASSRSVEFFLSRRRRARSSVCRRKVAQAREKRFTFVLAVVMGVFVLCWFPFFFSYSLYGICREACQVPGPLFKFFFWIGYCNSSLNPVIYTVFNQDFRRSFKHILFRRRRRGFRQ

[4] = target: T2, Muscarinic acetylcholine receptor M1 (Homo sapiens, UniProt P11229)
T2 sequence (P11229 whole entry): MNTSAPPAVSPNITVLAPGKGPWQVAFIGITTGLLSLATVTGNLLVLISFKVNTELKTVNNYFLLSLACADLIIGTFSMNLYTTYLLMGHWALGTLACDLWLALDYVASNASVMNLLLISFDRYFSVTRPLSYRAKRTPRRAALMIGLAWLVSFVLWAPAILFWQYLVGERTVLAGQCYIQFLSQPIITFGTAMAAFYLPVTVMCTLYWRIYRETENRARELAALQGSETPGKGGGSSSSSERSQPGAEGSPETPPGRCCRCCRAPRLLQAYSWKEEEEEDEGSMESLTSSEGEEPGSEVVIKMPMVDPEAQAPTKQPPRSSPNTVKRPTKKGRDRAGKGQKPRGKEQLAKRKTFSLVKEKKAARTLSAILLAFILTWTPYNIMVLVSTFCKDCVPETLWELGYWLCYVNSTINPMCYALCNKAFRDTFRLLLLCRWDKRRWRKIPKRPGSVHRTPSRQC

[5] = target: Gamma-aminobutyric acid receptor subunit alpha-1 (Rattus norvegicus, UniProt P62813)
Sequence of Gamma-aminobutyric acid receptor subunit alpha-1 (P62813 whole entry): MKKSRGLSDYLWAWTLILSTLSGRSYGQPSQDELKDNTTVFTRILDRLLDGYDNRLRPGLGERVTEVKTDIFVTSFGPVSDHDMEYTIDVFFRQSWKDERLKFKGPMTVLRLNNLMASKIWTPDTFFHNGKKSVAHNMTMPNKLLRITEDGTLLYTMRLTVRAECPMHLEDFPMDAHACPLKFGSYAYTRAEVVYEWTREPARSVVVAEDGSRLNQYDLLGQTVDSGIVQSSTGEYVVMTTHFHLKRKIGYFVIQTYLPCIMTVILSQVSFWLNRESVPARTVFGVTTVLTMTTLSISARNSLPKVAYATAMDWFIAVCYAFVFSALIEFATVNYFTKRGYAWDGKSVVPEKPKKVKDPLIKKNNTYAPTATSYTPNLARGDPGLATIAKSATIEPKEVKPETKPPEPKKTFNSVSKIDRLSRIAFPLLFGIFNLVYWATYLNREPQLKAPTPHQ

[6] = target: T3, Alpha-1B adrenergic receptor (Homo sapiens, UniProt P35368)
T3 sequence (P35368 whole entry): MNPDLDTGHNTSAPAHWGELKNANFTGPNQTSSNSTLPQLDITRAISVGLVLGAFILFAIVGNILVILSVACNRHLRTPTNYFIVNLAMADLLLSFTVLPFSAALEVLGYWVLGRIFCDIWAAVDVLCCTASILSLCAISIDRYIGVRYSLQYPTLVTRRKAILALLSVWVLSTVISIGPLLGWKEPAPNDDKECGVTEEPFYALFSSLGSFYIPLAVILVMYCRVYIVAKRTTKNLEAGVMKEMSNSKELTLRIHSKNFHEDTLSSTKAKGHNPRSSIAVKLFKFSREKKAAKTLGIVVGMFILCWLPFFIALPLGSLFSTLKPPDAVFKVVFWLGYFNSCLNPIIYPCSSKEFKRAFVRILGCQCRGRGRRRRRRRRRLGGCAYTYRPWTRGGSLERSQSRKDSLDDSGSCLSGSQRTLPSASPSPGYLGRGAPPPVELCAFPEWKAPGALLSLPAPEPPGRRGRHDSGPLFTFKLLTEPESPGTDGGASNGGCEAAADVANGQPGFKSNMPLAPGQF

D(4) dopamine receptor = target: T4, D(4) dopamine receptor (Rattus norvegicus, UniProt P30729)
T4 sequence (P30729 whole entry): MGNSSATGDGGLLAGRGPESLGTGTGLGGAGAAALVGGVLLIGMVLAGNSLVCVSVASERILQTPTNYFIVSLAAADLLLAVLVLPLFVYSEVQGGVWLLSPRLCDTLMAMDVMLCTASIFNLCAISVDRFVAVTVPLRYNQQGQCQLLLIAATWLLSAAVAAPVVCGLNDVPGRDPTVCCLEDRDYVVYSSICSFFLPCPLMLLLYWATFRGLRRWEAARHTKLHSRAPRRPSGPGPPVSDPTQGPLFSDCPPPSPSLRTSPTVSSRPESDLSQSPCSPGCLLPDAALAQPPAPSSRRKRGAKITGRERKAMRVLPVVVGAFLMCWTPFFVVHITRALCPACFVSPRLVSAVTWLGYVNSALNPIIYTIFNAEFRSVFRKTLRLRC

[7] = target: T5, Muscarinic acetylcholine receptor M5 (Homo sapiens, UniProt P08912)
T5 sequence (P08912 whole entry): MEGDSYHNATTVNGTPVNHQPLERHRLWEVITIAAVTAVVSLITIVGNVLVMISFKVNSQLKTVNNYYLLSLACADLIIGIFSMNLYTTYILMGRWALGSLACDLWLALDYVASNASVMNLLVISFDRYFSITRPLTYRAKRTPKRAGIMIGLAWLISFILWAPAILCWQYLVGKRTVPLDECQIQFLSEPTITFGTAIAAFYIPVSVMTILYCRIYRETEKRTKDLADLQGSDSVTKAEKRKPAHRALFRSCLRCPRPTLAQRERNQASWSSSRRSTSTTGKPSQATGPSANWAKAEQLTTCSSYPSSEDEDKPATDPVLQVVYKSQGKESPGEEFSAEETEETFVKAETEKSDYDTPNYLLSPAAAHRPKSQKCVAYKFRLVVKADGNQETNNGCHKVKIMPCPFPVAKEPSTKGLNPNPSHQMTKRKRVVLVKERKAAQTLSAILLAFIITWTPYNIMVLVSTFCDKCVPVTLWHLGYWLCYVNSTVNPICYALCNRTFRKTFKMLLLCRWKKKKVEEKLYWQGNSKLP

Measured: Ki

Sequence of Mu-type opioid receptor (P35372 whole entry): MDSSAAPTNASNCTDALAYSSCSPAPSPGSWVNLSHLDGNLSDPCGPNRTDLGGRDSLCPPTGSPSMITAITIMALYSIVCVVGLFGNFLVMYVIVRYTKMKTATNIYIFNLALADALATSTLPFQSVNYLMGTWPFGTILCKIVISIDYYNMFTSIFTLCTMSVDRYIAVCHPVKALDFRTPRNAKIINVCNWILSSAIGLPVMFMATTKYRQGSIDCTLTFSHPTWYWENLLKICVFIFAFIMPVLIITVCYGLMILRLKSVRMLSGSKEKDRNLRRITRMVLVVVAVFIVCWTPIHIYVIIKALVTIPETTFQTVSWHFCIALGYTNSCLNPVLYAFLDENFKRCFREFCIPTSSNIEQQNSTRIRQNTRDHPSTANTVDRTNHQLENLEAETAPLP
Sequence of D(2) dopamine receptor (P14416 whole entry): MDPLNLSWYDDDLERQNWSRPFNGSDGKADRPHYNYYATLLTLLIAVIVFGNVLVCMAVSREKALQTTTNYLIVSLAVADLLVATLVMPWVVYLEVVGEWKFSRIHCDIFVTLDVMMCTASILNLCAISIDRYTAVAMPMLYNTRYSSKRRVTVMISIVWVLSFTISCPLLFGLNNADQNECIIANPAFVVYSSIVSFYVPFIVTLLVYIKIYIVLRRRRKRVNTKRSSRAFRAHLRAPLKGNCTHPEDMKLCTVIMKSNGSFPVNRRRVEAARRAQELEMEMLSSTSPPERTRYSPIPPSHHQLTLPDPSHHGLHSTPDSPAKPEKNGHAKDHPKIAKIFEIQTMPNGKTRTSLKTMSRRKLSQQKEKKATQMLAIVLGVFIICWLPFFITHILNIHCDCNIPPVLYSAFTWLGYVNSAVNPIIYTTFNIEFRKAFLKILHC
Sequence of Sodium-dependent noradrenaline transporter (P23975 whole entry): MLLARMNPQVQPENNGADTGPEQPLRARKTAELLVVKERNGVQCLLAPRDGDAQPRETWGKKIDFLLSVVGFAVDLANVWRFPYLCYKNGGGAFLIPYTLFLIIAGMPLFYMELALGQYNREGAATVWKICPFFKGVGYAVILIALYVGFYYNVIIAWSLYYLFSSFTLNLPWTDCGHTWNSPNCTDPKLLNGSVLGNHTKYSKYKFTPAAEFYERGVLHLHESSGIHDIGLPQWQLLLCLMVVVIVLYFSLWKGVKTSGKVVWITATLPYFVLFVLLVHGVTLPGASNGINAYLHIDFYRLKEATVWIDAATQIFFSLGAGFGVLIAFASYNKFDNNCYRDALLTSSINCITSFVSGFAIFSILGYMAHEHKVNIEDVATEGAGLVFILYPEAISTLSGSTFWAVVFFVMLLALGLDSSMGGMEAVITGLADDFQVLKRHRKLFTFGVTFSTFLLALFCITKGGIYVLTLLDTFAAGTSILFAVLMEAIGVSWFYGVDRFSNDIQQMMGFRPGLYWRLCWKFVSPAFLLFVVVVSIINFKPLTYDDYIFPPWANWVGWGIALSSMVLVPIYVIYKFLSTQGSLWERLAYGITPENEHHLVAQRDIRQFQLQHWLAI
Sequence of 5-hydroxytryptamine receptor 2A (P14842 whole entry): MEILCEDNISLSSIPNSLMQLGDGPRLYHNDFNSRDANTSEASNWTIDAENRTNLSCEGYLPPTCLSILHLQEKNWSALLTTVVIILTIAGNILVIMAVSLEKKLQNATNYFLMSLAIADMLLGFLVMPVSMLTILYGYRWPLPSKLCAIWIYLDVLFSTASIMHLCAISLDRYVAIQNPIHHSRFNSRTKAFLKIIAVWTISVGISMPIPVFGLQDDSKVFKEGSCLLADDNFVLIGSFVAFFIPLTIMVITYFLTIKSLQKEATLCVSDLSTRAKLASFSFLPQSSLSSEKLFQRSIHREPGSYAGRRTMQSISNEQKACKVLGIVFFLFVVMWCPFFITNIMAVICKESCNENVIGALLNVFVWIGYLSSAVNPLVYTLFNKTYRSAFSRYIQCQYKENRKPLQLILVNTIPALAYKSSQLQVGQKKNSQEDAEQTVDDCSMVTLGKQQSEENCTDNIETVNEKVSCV

N[C@@H](CCS(=O)(=O)O)C(=O)O (racemic)
> 10 µM: all assays above

N[C@@H](CCS)C(=O)O (racemic) [CAS_778]
> 10 µM: all assays above

NC(CS(=O)O)C(=O)O (configuration not stated) [CAS_109]
> 10 µM: all assays above

NC(CSSCC(N)C(=O)O)C(=O)O (configuration not stated) [CAS_595]
> 10 µM: all assays above

N[C@@H](CS)C(=O)O [CAS_5862]
> 10 µM: all assays above

CSCC[C@@H](N)C(=O)O [CAS_6137]
> 10 µM: all assays above

N[C@H](CCS(=O)(=O)O)C(=O)O [D-homocysteic acid]
> 10 µM: all assays above

N[C@H](CCS(=O)O)C(=O)O [D-homocysteine sulfinic acid]
> 10 µM: all assays above

N[C@@H]1CCSC1=O [D-homocysteine thiolactone]
> 10 µM: all assays above

N[C@H](CS(=O)(=O)O)C(=O)O [L-cysteic acid]
> 10 µM: all assays above

N[C@@H](CCS(=O)O)C(=O)O [L-homocysteine sulfinic acid]
> 10 µM: all assays above

N[C@H]1CCSC1=O [NSC_134505]
> 10 µM: all assays above
